Reference: patent publication EP1692296B1 (priority 2003, dated 2005)
Entries after “also recorded” stand apart in the source; their conditions may differ. Like-named read-outs stand apart in the source and are kept apart here.

Test system: protease
Assay type: biochemical, Aspergillus sp. MTCC 5102

Row | SMILES | % inhibition | Residual specific activity (%) | inhibition of the protease activity (in words) | % inhibition (200 µM) | Residual specific activity (%) (200 µM)
1 | O=C(O)CN(CCN(CC(=O)O)CC(=O)O)CC(=O)O [EDTA, ethylenediamine tetraacetic acid] | 6% | 94% | not inhibited; also recorded: no inhibition of activity |  | 
2 | [Cl][Hg][Cl] [HgCl2, mercuric chloride] |  |  | not inhibited | 14% | 86%
3 | O=S(=O)(F)Cc1ccccc1 [PMSF, phenylmethylsulfonyl fluoride] | 100% | 0% | totally inhibited; also recorded: inhibition of the activity |  | 
